Measured values taken from US11369565B2, “Amino-pyrimidine skeletal muscle modulators” (Cytokinetics, Inc., priority 2010, dated 2022).

Test system: rabbit skeletal myofibrils (approximately 90% fast fibers)
Assay: Activation of fast skeletal myofibrils (PUMA coupled-enzyme ATPase assay at pCa25)
Type: biochemical
Conditions: concentration at which the compound increased the enzymatic activity by 40%; calcium at pCa25; PM12 buffer pH 6.8
Description: Preparation of fast skeletal myofibrils. Rabbit skeletal myofibrils were prepared based upon the method of Herrmann et al. (Biochem. 32(28):7255-7263(1993). Myofibrils were prepared from rabbit psoas muscle purchased from Pel-Freez Biologicals (Arkansas) within 2 days of ordering, stored on ice. Minced muscle was homogenized in 10 volumes of ice-cold “standard” buffer (50 mM Tris, pH 7.4, 0.1 M potassium acetate, 5 mM KCl, 2 mM DTT, 0.2 mM PMSF, 10 μM leupeptin, 5 μM pepstatin, and 0.5 mM sodium azide) containing 5 mM EDTA and 0.5% Triton X-100 using an Omni-Macro homogenizer. Myofibrils were recovered by low speed centrifugation (3000 rpm for 10 minutes) and washed 2 times in the Triton X-100 containing buffer to ensure removal of cellular membrane. Following the Triton washes, myofibrils were washed 3 times in “standard” buffer containing 2 mM magnesium acetate. A final wash in assay buffer (12 mM PIPES, pH 6.8, 60 mM KCl, 1 mM DTT) was performed and brought to 10% sucrose for flash freezing in liquid nitrogen and storage at −80° C.
Activation of Fast Skeletal Myofibrils. Fast fiber activators were identified by measuring the enzymatic activity of muscle myofibril preparations using the proprietary PUMA™ (see, e.g., U.S. Pat. Nos. 6,410,254, 6,743,599, 7,202,051, and 7,378,254) assay system. Myofibril preparations consisted of rabbit skeletal muscle (approximately 90% fast fibers) that had been mechanically homogenized and washed with a detergent (triton X-100) to remove cellular membranes. This preparation retained all of the sarcomeric components in a native conformation and the enzymatic activity was still regulated by calcium. Compounds were tested using a myofibril suspension and a level of calcium sufficient to increase enzymatic activity of the myofibrils to 25% of their maximal rate (termed pCa25). Enzymatic activity was tracked via a pyruvate kinase and lactate dehydrogenase-coupled enzyme system. This assay regenerates myosin-produced ADP into ATP by oxidizing NADH, producing an absorbance change at 340 nm. The buffering system was 12 mM Pipes, 2 mM MgCl2, 1 mM DTT at pH 6.8 (PM12 buffer).

In the case of NC(=O)c1ccccc1-c1cnc(NC[C@]2(c3ncccc3F)C[C@H](F)C2)nc1 [2-[2-({[3-fluoro-1-(3-fluoro(2-pyridyl))cyclobutyl]methyl}amino)pyrimidin-5-yl]benzamide], the “Mean AC1.4” value is reported as “C (C=10-20 uM)”.

With NC(=O)c1ccnc(-c2cnc(NC[C@]3(c4ncccc4F)C[C@H](F)C3)nc2)c1 [2-[2-({[3-fluoro-1-(3-fluoro(2-pyridyl))cyclobutyl]methyl}amino)pyrimidin-5-yl]pyridine-4-carboxamide] the “Mean AC1.4” value was “B (B=1-10 uM)”.

For N#Cc1ccnc(-c2cnc(NC[C@]3(c4ncccc4F)C[C@H](F)C3)nc2)n1 [2-[2-({[3-fluoro-1-(3-fluoro(2-pyridyl))cyclobutyl]methyl}amino)pyrimidin-5-yl]pyrimidine-4-carbonitrile], the “Mean AC1.4” value was “B (B=1-10 uM)”.

In the case of NC(=O)c1ccnc(-c2cnc(NC[C@]3(c4ncccc4F)C[C@H](F)C3)nc2)n1 [2-[2-({[3-fluoro-1-(3-fluoro(2-pyridyl))cyclobutyl]methyl}amino)pyrimidin-5-yl]pyrimidine-4-carboxamide], the “Mean AC1.4” value is reported as “B (B=1-10 uM)”.

In the case of NC(=O)c1csc(-c2cnc(NCC3(c4ncccc4F)CCC3)nc2)n1 [2-[2-({[(3-fluoro-2-pyridyl)cyclobutyl]methyl}amino)pyrimidin-5-yl]-1,3-thiazole-4-carboxamide], the “Mean AC1.4” value is reported as “B (B=1-10 uM)”.

In the case of O=C(O)c1csc(-c2cnc(NCC3(c4ncccc4F)CCC3)nc2)n1 [2-[2-({[(3-fluoro-2-pyridyl)cyclobutyl]methyl}amino)pyrimidin-5-yl]-1,3-thiazole-4-carboxylic acid], the “Mean AC1.4” value is reported as “C (C=10-20 uM)”.

With N#Cc1cnc(-c2cnc(NCC3(c4ncccc4F)CCC3)nc2)s1 [2-[2-({[(3-fluoro-2-pyridyl)cyclobutyl]methyl}amino)pyrimidin-5-yl]-1,3-thiazole-5-carbonitrile] the “Mean AC1.4” value was “C (C=10-20 uM)”.

For NC(=O)c1cnc(-c2cnc(NCC3(c4ncccc4F)CCC3)nc2)s1 [2-[2-({[(3-fluoro-2-pyridyl)cyclobutyl]methyl}amino)pyrimidin-5-yl]-1,3-thiazole-5-carboxamide], the “Mean AC1.4” value was “A (A=<1 uM)”.

CC(C)(Nc1ncc(-c2cnn(CC(N)=O)c2)cn1)c1ncccc1Cl [2-[4-(2-{[1-(3-chloro(2-pyridyl))-isopropyl]amino}pyrimidin-5-yl)pyrazolyl]acetamide] was tested, and the “Mean AC1.4” value was “D (D=>20 uM)”.

CC(C)(Nc1ncc(-c2cnn(CC(=O)O)c2)cn1)c1ncccc1Cl [2-[4-(2-{[1-(3-chloro(2-pyridyl))-isopropyl]amino}pyrimidin-5-yl)pyrazolyl]acetic acid] was tested, and the “Mean AC1.4” value was “D (D=>20 uM)”.

In the case of CC(C)(Nc1ncc(-c2cnn(CCO)c2)cn1)c1ncccc1Cl [2-[4-(2-{[1-(3-chloro(2-pyridyl))-isopropyl]amino}pyrimidin-5-yl)pyrazolyl]ethan-1-ol], the “Mean AC1.4” value is reported as “D (D=>20 uM)”.

With CC(C)(Nc1ncc(-c2cc(CC(N)=O)ccc2F)cn1)c1ncccc1F [2-[4-fluoro-3-(2-{[1-(3-fluoro(2-pyridyl))-isopropyl]amino}pyrimidin-5-yl)phenyl]acetamide] the “Mean AC1.4” value was “B (B=1-10 uM)”.

With CC(C)(C)OC(=O)NCC(=O)NCc1cnn(-c2cnc(NC(C)(C)c3ncccc3Cl)nc2)c1 [2-[(tert-butoxy)carbonylamino]-N-{[1-(2-{[1-(3-chloro(2-pyridyl))-isopropyl]amino}pyrimidin-5-yl)pyrazol-4-yl]methyl}acetamide] the “Mean AC1.4” value was “D (D=>20 uM)”.

CC(C)(Nc1ncc(-n2cc(CNC(=O)CN)cn2)cn1)c1ncccc1Cl [2-amino-N-{[1-(2-{[1-(3-chloro(2-pyridyl))-isopropyl]amino)pyrimidin-5-yl)pyrazol-4-yl]methyl]acetamide] was tested, and the “Mean AC1.4” value was “B (B=1-10 uM)”.

With CC(C)(Nc1ncc(-c2nc(CNC(=O)CN)cs2)cn1)c1ncccc1F [2-amino-N-{[2-(2-{[1-(3-fluoro(2-pyridyl))-isopropyl]amino}pyrimidin-5-yl)(1,3-thiazol-4-yl)]methyl}acetamide] the “Mean AC1.4” value was “D (D=>20 uM)”.

For CC(C)(Nc1ncc(-c2ncc(CNC(=O)CN)s2)cn1)c1ncccc1F [2-amino-N-{[2-(2-{[1-(3-fluoro(2-pyridyl))-isopropyl]amino}pyrimidin-5-yl)(1,3-thiazol-5-yl)]methyl}acetamide], the “Mean AC1.4” value was “D (D=>20 uM)”.

NC(=O)Cc1cnc(-c2cnc(NC[C@]3(c4ncccc4Cl)C[C@H](F)C3)nc2)s1 [2-{2-[2-({[1-(3-chloro(2-pyridyl))-3-fluorocyclobutyl]methyl}amino)pyrimidin-5-yl]-1,3-thiazol-5-yl}acetamide] was tested, and the “Mean AC1.4” value was “B (B=1-10 uM)”.

In the case of NC(=O)Cc1ccccc1-c1cnc(NC[C@]2(c3ncccc3F)C[C@H](F)C2)nc1 [2-{2-[2-({[3-fluoro-1-(3-fluoro(2-pyridyl))cyclobutyl)]methyl}amino)pyrimidin-5-yl]phenyl)acetamide], the “Mean AC1.4” value is reported as “C (C=10-20 uM)”.

In the case of NC(=O)Cc1cnc(-c2cnc(NC[C@]3(c4ncccc4F)C[C@H](F)C3)nc2)s1 [2-{2-[2-({[3-fluoro-1-(3-fluoro(2-pyridyl))cyclobutyl]methyl)amino)pyrimidin-5-yl]-1,3-thiazol-5-yl}acetamide], the “Mean AC1.4” value is reported as “B (B=1-10 uM)”.

For NC(=O)Cc1cnc(-c2cnc(NCC3(c4ncccc4Cl)CCC3)nc2)s1 [2-{2-[2-({[(3-chloro-2-pyridyl)cyclobutyl]methyl}amino)pyrimidin-5-yl]-1,3-thiazol-5-yl}acetamide], the “Mean AC1.4” value was “A (A=<1 uM)”.

For NC(=O)Cc1cnc(-c2cnc(NCC3(c4ncccc4F)CCC3)nc2)s1 [2-{2-[2-({[(3-fluoro-2-pyridyl)cyclobutyl]methyl}amino)pyrimidin-5-yl]-1,3-thiazol-5-yl}acetamide], the “Mean AC1.4” value was “B (B=1-10 uM)”.

In the case of N#CCc1cnc(-c2cnc(NCC3(c4ncccc4F)CCC3)nc2)s1 [2-{2-[2-({[(3-fluoro-2-pyridyl)cyclobutyl]methyl}amino)pyrimidin-5-yl]-1,3-thiazol-5-yl}ethanenitrile], the “Mean AC1.4” value is reported as “B (B=1-10 uM)”.

With Cc1nc(NC[C@]2(c3ncccc3F)C[C@H](F)C2)ncc1-c1cccc(CC(N)=O)c1 [2-{3-[2-({[3-fluoro-1-(3-fluoro(2-pyridyl))cyclobutyl]methyl}amino)-4-methylpyrimidin-5-yl]phenyl}acetamide] the “Mean AC1.4” value was “C (C=10-20 uM)”.

Cc1nc(NC[C@]2(c3ncccc3F)C[C@H](F)C2)ncc1-c1ccc(CC(N)=O)cc1 [2-{4-[2-({[3-fluoro-1-(3-fluoro(2-pyridyl))cyclobutyl]methyl}amino)-4-methylpyrimidin-5-yl]phenyl}acetamide] was tested, and the “Mean AC1.4” value was “B (B=1-10 uM)”.

Cc1nc(NC[C@]2(c3ncccc3F)C[C@H](F)C2)ncc1-c1ccc(CC(=O)O)cc1 [2-{4-[2-({[3-fluoro-1-(3-fluoro(2-pyridyl))cyclobutyl]methyl}amino)-4-methylpyrimidin-5-yl]phenyl}acetic acid] was tested, and the “Mean AC1.4” value was “D (D=>20 uM)”.

In the case of CC(C)(Nc1ncc(C#N)cn1)c1ncccc1Cl [2-{[1-(3-chloro(2-pyridyl))-isopropyl]amino}pyrimidine-5-carbonitrile], the “Mean AC1.4” value is reported as “D (D=>20 uM)”.

For CC(C)(Nc1ncc(C(N)=O)cn1)c1ncccc1Cl [2-{[1-(3-chloro(2-pyridyl))-isopropyl]amino}pyrimidine-5-carboxamide], the “Mean AC1.4” value was “D (D=>20 uM)”.

For CC(C)(CNc1ncc2c(n1)CN(C(N)=O)CC2)c1ccc(F)cc1 [2-{[2-(4-fluorophenyl)-2-methylpropyl]amino}-5,6,7,8-tetrahydropyridino[3,4-d]pyrimidine-7-carboxamide], the “Mean AC1.4” value was “D (D=>20 uM)”.

In the case of CC(C)(CNc1ncc2c(n1)CCN(S(C)(=O)=O)C2)c1ccc(F)cc1 [2-{[2-(4-fluorophenyl)-2-methylpropyl]amino}-6-(methylsulfonyl)-5,6,7,8-tetrahydropyridino[4,3-d]pyrimidine], the “Mean AC1.4” value is reported as “B (B=1-10 uM)”.

In the case of CC(C)(CNc1ncc2c(n1)CN(S(C)(=O)=O)CC2)c1ccc(F)cc1 [2-{[2-(4-fluorophenyl)-2-methylpropyl]amino}-7-(methylsulfonyl)-5,6,7,8-tetrahydropyridino[3,4-d]pyrimidine], the “Mean AC1.4” value is reported as “C (C=10-20 uM)”.

For O=C(O)CNC(=O)c1cnc(NCC2(c3ncccc3F)CCC2)nc1 [2-{[2-({[(3-fluoro-2-pyridyl)cyclobutyl]methyl}amino)pyrimidin-5-yl]carbonylamino} acetic acid], the “Mean AC1.4” value was “D (D=>20 uM)”.

In the case of NC(=O)c1cnc(NC2(c3ncccc3F)CCC2)nc1C(F)(F)F [2-{[(3-fluoro(2-pyridyl))cyclobutyl]amino)-4-(trifluoromethyl)pyrimidine-5-carboxamide], the “Mean AC1.4” value is reported as “D (D=>20 uM)”.

With O=C(O)c1cnc(NC2(c3ncccc3F)CCC2)nc1C(F)(F)F [2-{[(3-fluoro(2-pyridyl))cyclobutyl]amino}-4-(trifluoromethyl)pyrimidine-5-carboxylic acid] the “Mean AC1.4” value was “D (D=>20 uM)”.

N#Cc1cnc(NC2(c3ncccc3F)CCC2)nc1 [2-{[(3-fluoro-2-pyridyl)cyclobutyl]amino} pyrimidine-5-carbonitrile] was tested, and the “Mean AC1.4” value was “D (D=>20 uM)”.
